{"source": "patent US20030229004A1", "about": "“Modulation of tumor cells using BER inhibitors in combination with a sensitizing agent and DSBR inhibitors” (Pangene Corporation, priority 2002, published 2003)", "key": {"HCT116 cells [1]": {"test_system": "HCT116 cells", "experiment": "Clonogenic survival in HCT116 (MMR-deficient) colon carcinoma cells", "format": "cell-based, human", "protocol": "(§1) FIG. 2. […] Cells were treated for 48 hours with IUDR alone (closed symbols) or with IUDR and 6 mM Methoxyamine (open symbols). Surviving colonies were counted in triplicate 7-10 days after treatment. Error bars, Standard Error. FIG. 4. […] Cells were treated for 24 hours with FaraA alone or with FaraA and 6 mM Methoxyamine. Surviving colonies were counted in triplicate 7-10 days after treatment. Error bars, Standard Error. The human colon cancer cell line HCT116 lacks MLH1 expression and their MMR positive subline (HCT116/chr 3-6) has hMLH1 reintroduced by chromosome 3 transfer. For clonogenic survival studies in HCT116 and HCT116/3-6 cells, exponentially growing cells were similarly diluted and plated in complete D-MEM medium (+400 μg/ml G418 in HCT116/3-6 cells). […] IUDR-containing medium was then removed in HCT116 cell populations, cultures were washed with PBS and incubated at 37° C. for 7-10 days in tissue culture medium containing 10% defined FBS (+dThd). HCT116 cell populations were treated simultaneously with IUDR and 6 mM Methoxyamine (MX) (Sigma, St Louis, Mo.) for 48 hours; plates were then washed with PBS and surviving colonies were counted after incubation at 37° C. in drug-free medium for 7-10 days."}, "[2]": {"test_system": "wild type and Polβ-complemented mouse fibroblasts", "conditions": "cited from earlier work"}, "AA8 cells": {"test_system": "AA8 cells", "experiment": "FaraA cytotoxicity in wild type AA8 CHO cells", "format": "cell-based", "conditions": "6 mM MX", "protocol": "(§2) FIG. 3. Effect of Methoxyamine (MX) on cytotoxicity induced by FaraA in CHO cells proficient or deficient in Xrcc1 protein. Cells were treated for 24 hours with FaraA alone or with FaraA and 6 mM Methoxyamine. Surviving colonies were counted in triplicate 7-10 days after treatment and the experiment was repeated three times. Error bars, Standard Error.\n(§3) AA8 and EM9 cells were obtained from the American Tissue Culture Collection (Manassas, Va.). H9T3 cells were a gift of Dr. L. H. Thompson (Lawrence Livermore National Laboratory, Livermore, Calif.). The parental CHO line clone AA8 was isolated as being heterozygous at the aprt locus; the mutant EM9 clone was isolated from AA8 cells following mutagenesis with EMS and carry a frameshift mutation in the XRCC1 gene resulting in a truncated polypeptide lacking two thirds of the normal sequence. […] H9T3-7-1 cells (referred in the text as H9T3) were derived from EM9 following transfection with a cosmid containing XRCC1 cDNA which corrects the DNA repair defect of EM9.\n(§4) We tested whether MX, a small molecule known to be BER inhibitor, could sensitize CHO cells to FaraA cytotoxicity."}, "A2780/cp70+chr3 cells": {"test_system": "A2780/cp70+chr3 cells", "experiment": "Clonogenic survival in A2780/cp70+chr3 (MMR-proficient) ovary carcinoma cells", "format": "cell-based, human", "protocol": "(§5) FIG. 1. Effect of Methoxyamine (MX) on cytotoxicity induced by IUDR in human A2780/cp70 (MMR-deficient) and […]) ovary carcinoma cell lines. Cells were treated for 48 hours with IUDR alone or with IUDR and 6 mM Methoxyamine. Surviving colonies were counted in triplicate 7-10 days after treatment. Error bars, Standard Error. FIG. 5. Effect of Methoxyamine (MX) on cytotoxicity induced by FaraA in human A2780/cp70 (MMR-deficient) and […]) ovary carcinoma cell lines. Cells were treated for 48 hours with FaraA alone or with FaraA and 6 mM Methoxyamine. Surviving colonies were counted in triplicate 7-10 days after treatment. Error bars, Standard Error. For clonogenic survival studies in A2780/cp70 and […], exponentially growing cells were similarly diluted and plated in complete RPMI 1640 medium (+400 μg/ml Hygromycin in […]). […] IUDR-containing medium was then removed in cell populations, cultures were washed with PBS and incubated at 37° C. for 7-10 days in tissue culture medium containing 10% defined FBS (+dThd). Cell populations were treated simultaneously with IUDR and 6 mM Methoxyamine (MX) (Sigma, St Louis, Mo.) for 48 hours; plates were then washed with PBS and surviving colonies were counted after incubation at 37° C. in drug-free medium for 7-10 days."}, "EM9 cells": {"test_system": "EM9 cells", "experiment": "FaraA cytotoxicity in XRCC1 mutant EM9 CHO cells", "format": "cell-based", "protocol": "as §2, §3, §4"}, "A2780/cp70 cells": {"test_system": "A2780/cp70 cells", "experiment": "Clonogenic survival in A2780/cp70 (MMR-deficient) ovary carcinoma cells", "format": "cell-based, human", "protocol": "as §5"}, "HCT116/3-6 cells": {"test_system": "HCT116/3-6 cells", "experiment": "Clonogenic survival in HCT116/3-6 (MMR-proficient) colon carcinoma cells", "format": "cell-based, human", "conditions": "for IC50: Homo sapiens, HCT-116, 24 hours", "protocol": "as §1"}, "[3]": {"test_system": "Human U87 MG glioma cells", "experiment": "U87 MG glioma xenografts in athymic mice, with IPDR", "format": "in vivo", "conditions": "U87 MG xenograft; i.p. days 1-5, 3 cycles; all mice also IPDR 250 mg/kg day 4; measured at day 49", "protocol": "(§6) Athymic mice are treated with Rad51 antisense alone, MX alone, and Rad51 antisense in combination with MX. All mice are also treated with IPDR. Tumor fragment of about 2×2×2 mm derived from Human U87 MG glioma cells are implanted s.c. into the axilliary region of the mice. The mice are treated i.p. with Rad51 antisense at 5 mg/kg on days 1 through 5, MX at 2 mg/kg on days 1 through 5, and IPDR at 250 mg/kg on day 4. The cycle is repeated three times with a two-day rest period between cycles. The animals are euthanatized 49 days after the beginning of the experiment, and the tumor size is measured by calipers."}, "H9T3 cells": {"test_system": "H9T3 cells", "experiment": "FaraA cytotoxicity in XRCC1 reconstituted H9T3 CHO cells", "format": "cell-based", "conditions": "6 mM MX", "protocol": "as §2, §3, §4"}, "[4]": {"test_system": "Human MDA-MB-231 breast cancer cells", "experiment": "MDA-MB-231 breast cancer xenografts in athymic mice, with Doxorubicin", "format": "in vivo", "conditions": "MDA-MB-231 xenograft; i.p. days 1-5, 3 cycles; all mice also Doxorubicin 1.5 mg/kg day 4; measured at day 49", "protocol": "FIG. 6. Effect of Rad51 antisense on tumor growth delay induced by Doxorubicin on Human MDA-MB-231 Breast cancer cells grown as xenografts in Athymic Mice. The mice were treated i.p. with Rad51 antisense at 5 mg/kg on days 1 through 5, MX at 2 mg/kg on days 1 through 5, and with Doxorubicin at 1.5 mg/kg on day 4. The cycle was repeated three times with a two-day rest period between cycles.\nas §6, with “Doxorubicin.” for “IPDR.”, “MDA-MB-231 breast cancer” for “U87 MG glioma”, “cells Athymic mice” for “cells”, “Doxorubicin” for “IPDR”, “1.5” for “250”"}, "[5]": {"test_system": "human colon and brain cancer xenograft models", "conditions": "daily p.o. dosing of IPDR for 6 or 14 days; human colon and brain cancer xenografts; cited from earlier work"}, "[6]": {"experiment": "Plasma levels of IPDR in athymic mice", "format": "in vivo", "conditions": "250 mg/kg ip; samples 0-350 min; athymic mice with U87 MG tumors", "protocol": "Athymic mice are treated with MX-IPDR or IPDR. Tumor fragment of about 2×2×2 mm derived from Human U87 MG Glioma Cells are implanted s.c. into the axilliary region of the mice. The mice are then treated ip with MX-IPDR at 250 mg/kg or IPDR at 250 mg/kg and samples taken at 0, 2, 5, 15, 45, 75, 120, 150, 210 and 350 min after treatment. The IPDR plasma levels are determined as previously reported by Kinsella et al. {Kinsella, 2000 #121}."}, "[7]": {"conditions": "daily p.o. dosing of IPDR for 6 or 14 days; nude mice; cited from earlier work"}, "HCT116 cells [8]": {"test_system": "HCT116 cells", "experiment": "Clonogenic survival of HCT116 with poly IUDR and IUDR (Example 8)", "format": "cell-based, human", "conditions": "1, 3, 10 μM for 48 hours", "protocol": "Human colon cells (HCT 116) are treated with poly IUDR, an oligonucleotide comprised of IUDR, and IUDR. For clonogenic survival studies in HCT116, exponentially growing cells are similarly diluted and plated in complete D-MEM medium (+400 μg/ml G418 in HCT116/3-6 cells). Poly IUDR and IUDR treatment (1, 3, 10 μM) in HCT116 is for 48 hours in D-MEM (-G418) medium containing 10% dialyzed FBS, and the drug-containing medium is replaced after the initial 24 hours. Compound-containing medium is then removed from the HCT116 cell cultures, the cultures are washed with PBS, and incubated at 37° C. for 7-10 days in tissue culture medium containing 10% defined FBS (+dThd). Surviving colonies are counted after incubation at 37° C. in drug-free medium for 7-10 days."}, "[9]": {"conditions": "IUDR 48 hours, colonies counted after 7-10 days, read-out: IC50 for IUDR alone"}}, "note": "Like-named read-outs stand apart in the source and are kept apart here."}
{"compound": "CON", "note": "[MX, Methoxyamine]", "values": [{"measurement": "Sensitization to IUDR-induced cytotoxicity by MX", "setting": "HCT116 cells [1]; 12 mM MX as printed", "result": "greatly sensitized"}, {"measurement": "Sensitization to the cytotoxicity of Ganciclovir", "setting": "[2]", "result": "sensitized"}, {"measurement": "Sensitization to FaraA by MX", "setting": "AA8 cells", "result": "significantly sensitized"}, {"measurement": "Sensitization to IUDR-induced cytotoxicity by MX", "setting": "A2780/cp70+chr3 cells; cp70/ch3 cells, 6 mM MX, 48 hours", "result": "greatly sensitized"}, {"measurement": "Sensitization to FaraA by MX", "setting": "EM9 cells; EM9 cells, 6 mM MX", "result": "further sensitized"}, {"measurement": "Sensitization to IUDR-induced cytotoxicity by MX", "setting": "A2780/cp70 cells; 6 mM MX, 48 hours", "result": "greatly sensitized"}, {"measurement": "Sensitization to IUDR-induced cytotoxicity by MX", "setting": "HCT116/3-6 cells; HCT116/3-6 cells, 12 mM MX as printed", "result": "greatly sensitized"}, {"measurement": "Tumor size and tumor cell killing", "setting": "[3]", "result": "Reduction in tumor size and tumor cell killing"}, {"measurement": "Sensitization to FaraA by MX", "setting": "H9T3 cells", "result": "significantly sensitized"}, {"measurement": "Tumor size and tumor cell killing", "setting": "[4]", "result": "Reduction in tumor size and tumor cell killing"}]}
{"compound": "O=c1ncc(I)cn1[C@H]1C[C@H](O)[C@@H](CO)O1", "note": "[IPDR, 5-iodo-2-pyrimidinone-2′-deoxyribose]", "values": [{"measurement": "Tumor radiosensitization", "setting": "[5]", "result": "significant radiosensitization"}, {"measurement": "Plasma IPDR levels required to act as a radiosensitizer", "setting": "[6]", "result": "acceptable level"}, {"measurement": "Systemic toxicity", "setting": "[7]", "result": "no significant systemic toxicity"}]}
{"compound": "Nc1nc(F)nc2c1ncn2[C@@H]1O[C@H](CO)[C@@H](O)[C@@H]1O", "note": "[FaraA, Fludarabine]", "values": [{"measurement": "IC50", "setting": "HCT116 cells [1]; Homo sapiens, HCT-116, FaraA + 6 mM MX, 24 hours, read-out: IC50 for FaraA with 6 mM MX", "result": 3, "unit": "µM"}, {"measurement": "IC50", "setting": "HCT116 cells [1]; Homo sapiens, HCT-116, FaraA alone, 24 hours, read-out: IC50 for FaraA treatment", "result": 9, "unit": "µM"}, {"measurement": "IC50", "setting": "EM9 cells; Cricetulus griseus, CHO, XRCC1 mutant EM9 cells, FaraA alone, 24 hours", "result": 7.5, "unit": "µM"}, {"measurement": "IC50", "setting": "A2780/cp70 cells; Homo sapiens, FaraA + 6 mM MX, 48 hours, read-out: IC50 for FaraA with 6 mM MX", "result": 4, "unit": "µM"}, {"measurement": "IC50", "setting": "A2780/cp70 cells; Homo sapiens, FaraA alone, 48 hours, read-out: IC50 for FaraA alone", "result": 11, "unit": "µM"}, {"measurement": "IC50", "setting": "HCT116/3-6 cells; HCT116/3-6 cells, FaraA + 6 mM MX, read-out: IC50 for FaraA in the presence of 6 mM MX", "result": 3, "unit": "µM"}, {"measurement": "IC50", "setting": "HCT116/3-6 cells; HCT116/3-6 cells, FaraA alone, read-out: IC50 for FaraA", "result": 5, "unit": "µM"}]}
{"compound": "O=c1[nH]c(=O)n([C@H]2C[C@H](O)[C@@H](CO)O2)cc1I", "note": "[IUDR, IodoUridineDeoxyRibose]", "values": [{"measurement": "Cytotoxicity in clonogenic survival", "setting": "HCT116 cells [8]", "result": "greatly sensitized"}, {"measurement": "IC50", "setting": "HCT116 cells [1]; [9]", "result": 4.5, "unit": "µM"}, {"measurement": "IC50", "setting": "HCT116 cells [1]; IUDR + MX for 48 hours (method 6 mM MX, result sentence 12 mM MX), read-out: IC50 for IUDR with MX treatment", "result": 0.5, "unit": "µM"}, {"measurement": "Response to IUDR alone and to MX+IUDR compared with A2780/cp70", "setting": "A2780/cp70+chr3 cells; MMR positive subline A2780/cp70 chr3", "result": "qualitatively similar"}, {"measurement": "IC50", "setting": "A2780/cp70 cells; [9]", "result": 8, "unit": "µM"}, {"measurement": "IC50", "setting": "A2780/cp70 cells; IUDR + 6 mM MX for 48 hours, read-out: IC50 for IUDR with MX treatment", "result": 1, "unit": "µM"}, {"measurement": "Response to IUDR alone and to MX+IUDR compared with HCT116", "setting": "HCT116/3-6 cells; MMR positive subline HCT116/chr3-6", "result": "qualitatively similar"}]}
